Test results reported in patent publication US20120329709A1, “PRODUCTION OF GLYCOPROTEINS” (priority 2009, published 2012).

Assays:
[1] = tested on: CHO cells; experiment: LC-MS analysis of glycans from CTLA4Ig produced by CHO cells in the presence of elevated uridine; assay type: cell-based, Chinese hamster; details: CTLA4Ig from uridine-supplemented CHO cells, compared to the untreated control
Description: FIG. 1 is a depiction of the levels of glycans from recombinant fusion protein CTLA4-IgG produced in the presence of elevated uridine. Data are expressed as the ratio of the amount of the indicated glycan from control conditions to the amount of the same glycan produced in the presence of elevated uridine. Values are the average +/−SD of duplicate determinants. A value greater than one indicates the species is in greater abundance under the control conditions.
Chinese hamster ovary (CHO) cells were supplemented with the nucleoside uridine. Cells were harvested, and snap frozen, while culture supernatant was harvested and CTLA4Ig harvested by protein A purification for subsequent analysis. Cells were then subjected to nucleotide sugar extraction using standard methods. In short, this was performed with chloroform:methanol:water (2:4:1), the pellets discarded, and the resulting extraction dried down. The dried material was subsequently resuspended in 500 ul of 10% butanol in water and then extracted with 1 ml of 90% butanol in water. […] For quantification, sugar-nucletides were resolved with RP chromatography.
Protein product was deglycosylated with PNGase F for 18 hours and the resulting glycans isolated with PGC chromatography. […] Resulting MS peak areas were quantified and for each glycan the ratio of the control vs. the uridine treated samples was determined.

[2] = tested on: CHO cells; experiment: Intracellular sugar-nucleotide levels from CHO cells cultured with Uridine supplementation; assay type: cell-based, Chinese hamster; design: CMP-NeuAc, average increase in sugar-nucloetide above no supplemented cells / UDP-Gal, average increase in sugar-nucloetide above no supplemented cells / UDP-Glc, average increase in sugar-nucloetide above no supplemented cells / UDP-GlcNAc, average increase in sugar-nucloetide above no supplemented cells / GDP-Man, average increase in sugar-nucloetide above no supplemented cells: unit not given here; details: for CMP-NeuAc, average increase in sugar-nucloetide above no supplemented cells / GDP-Fuc, average increase in sugar-nucloetide above no supplemented cells / GDP-Man, average increase in sugar-nucloetide above no supplemented cells / UDP-Gal, average increase in sugar-nucloetide above no supplemented cells / UDP-Glc, average increase in sugar-nucloetide above no supplemented cells / UDP-GlcNAc, average increase in sugar-nucloetide above no supplemented cells: intracellular, CHO cells
Experimental: Chinese hamster ovary (CHO) cells were supplemented with the nucleoside uridine. Cells were harvested, and snap frozen, while culture supernatant was harvested and CTLA4Ig harvested by protein A purification for subsequent analysis. Cells were then subjected to nucleotide sugar extraction using standard methods. In short, this was performed with chloroform:methanol:water (2:4:1), the pellets discarded, and the resulting extraction dried down. The dried material was subsequently resuspended in 500 ul of 10% butanol in water and then extracted with 1 ml of 90% butanol in water. The butanol phase was discarded and the acqueous subjected to a second butanol extraction. The final aqueous phase was dried down and the sugar nucleotides further isolated by PGC chromatography eluting off with 25% acetonitrile (v/v) containing 50 mM triethylammonium acetate. For quantification, sugar-nucletides were resolved with RP chromatography.

Question: Which “level of the monogalactosylated species on the protein product” value [1] does the source give for `O=c1ccn([C@@H]2O[C@H](CO)[C@@H](O)[C@H]2O)c(=O)[nH]1` [Uridine, uridine] here?
Answer: Its value is “rises”.

Question: What about the “levels of the uridine sugars including UDP-Gal and UDP-GlcNAc” value ([2]; CHO cells supplemented with uridine) of the same compound?
Answer: The value was “increased significantly”.

Question: And the “CMP-NeuAc, average increase in sugar-nucloetide above no supplemented cells” value ([2]; Uridine 2 x)?
Answer: The value was 32.13.

Question: What about the “GDP-Fuc, average increase in sugar-nucloetide above no supplemented cells” value ([2]; Uridine 2 x) of the same compound?
Answer: The value was 6.5.

Question: And the “GDP-Man, average increase in sugar-nucloetide above no supplemented cells” value ([2]; Uridine 2 x)?
Answer: Its value is 6.06.

Question: And the “UDP-Gal, average increase in sugar-nucloetide above no supplemented cells” value ([2]; Uridine 2 x)?
Answer: Its value is 168.97.

Question: What about the “UDP-Glc, average increase in sugar-nucloetide above no supplemented cells” value ([2]; Uridine 2 x) of the same compound?
Answer: The value was 409.16.

Question: What about the “UDP-GlcNAc, average increase in sugar-nucloetide above no supplemented cells” value ([2]; Uridine 2 x) of the same compound?
Answer: Its value is 402.7.

Question: And the “CMP-NeuAc, average increase in sugar-nucloetide above no supplemented cells” value ([2]; Uridine 10 x)?
Answer: The value was 50.52.

Question: And the “GDP-Fuc, average increase in sugar-nucloetide above no supplemented cells” value ([2]; Uridine 10 x)?
Answer: The value was 8.98.

Question: And the “GDP-Man, average increase in sugar-nucloetide above no supplemented cells” value ([2]; Uridine 10 x)?
Answer: The value was 12.45.

Question: What about the “UDP-Gal, average increase in sugar-nucloetide above no supplemented cells” value ([2]; Uridine 10 x) of the same compound?
Answer: Its value is 389.06.

Question: What about the “UDP-Glc, average increase in sugar-nucloetide above no supplemented cells” value ([2]; Uridine 10 x) of the same compound?
Answer: Its value is 1261.96.

Question: What about the “UDP-GlcNAc, average increase in sugar-nucloetide above no supplemented cells” value ([2]; Uridine 10 x) of the same compound?
Answer: The value was 2280.49.
